By IC50 is commonly meant the concentration at which inhibition is half-maximal. A lower IC50 goes with higher potency.

Some results are limits rather than exact numbers.

Experiment [1] has as its target Myosin light chain kinase, smooth muscle (Homo sapiens, UniProt Q15746). In words: Selectivity interaction (LanthaScreen Eu Kinase Binding Assay) EUB0001632a MYLK. Conditions: at 10 µM. (In general: In TR-FRET formats the signal depends on donor and acceptor labels being close together.)
The target in experiment [2] is T1, Serine/threonine-protein kinase Nek1 (Homo sapiens) (UniProt Q96PY6).
T1 sequence (whole entry): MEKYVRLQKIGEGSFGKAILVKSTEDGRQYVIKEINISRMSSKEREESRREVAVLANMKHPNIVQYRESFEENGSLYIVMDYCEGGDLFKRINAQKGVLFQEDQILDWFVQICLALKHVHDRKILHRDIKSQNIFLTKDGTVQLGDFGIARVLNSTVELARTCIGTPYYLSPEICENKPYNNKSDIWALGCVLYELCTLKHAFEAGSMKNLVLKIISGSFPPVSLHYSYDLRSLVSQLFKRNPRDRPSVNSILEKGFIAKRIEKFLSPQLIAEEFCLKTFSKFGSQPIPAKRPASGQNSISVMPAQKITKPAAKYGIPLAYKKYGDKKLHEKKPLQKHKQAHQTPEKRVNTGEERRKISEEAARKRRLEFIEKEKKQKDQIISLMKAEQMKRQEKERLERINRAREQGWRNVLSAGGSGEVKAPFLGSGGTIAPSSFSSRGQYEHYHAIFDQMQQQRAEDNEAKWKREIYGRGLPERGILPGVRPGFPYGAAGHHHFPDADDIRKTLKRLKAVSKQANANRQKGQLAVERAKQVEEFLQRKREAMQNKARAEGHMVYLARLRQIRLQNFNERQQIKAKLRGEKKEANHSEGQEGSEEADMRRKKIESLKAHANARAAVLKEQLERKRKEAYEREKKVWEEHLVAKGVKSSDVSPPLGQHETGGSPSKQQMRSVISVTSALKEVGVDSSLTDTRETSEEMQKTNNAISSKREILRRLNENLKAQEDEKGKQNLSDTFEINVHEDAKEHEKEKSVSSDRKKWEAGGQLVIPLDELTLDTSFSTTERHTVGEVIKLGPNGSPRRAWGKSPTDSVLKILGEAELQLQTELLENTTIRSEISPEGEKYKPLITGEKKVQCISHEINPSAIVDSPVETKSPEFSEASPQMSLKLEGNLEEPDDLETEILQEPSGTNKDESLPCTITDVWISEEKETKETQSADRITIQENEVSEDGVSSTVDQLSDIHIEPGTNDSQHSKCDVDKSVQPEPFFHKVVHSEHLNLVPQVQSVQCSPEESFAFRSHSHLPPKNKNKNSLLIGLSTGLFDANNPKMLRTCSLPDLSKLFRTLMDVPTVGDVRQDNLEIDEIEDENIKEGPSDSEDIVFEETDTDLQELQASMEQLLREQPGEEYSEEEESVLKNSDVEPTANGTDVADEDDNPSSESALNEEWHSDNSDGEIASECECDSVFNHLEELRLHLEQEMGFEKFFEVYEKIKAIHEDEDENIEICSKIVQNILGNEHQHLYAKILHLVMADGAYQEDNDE
In words: Selectivity interaction (KinomeScan (DiscoverX)) EUB0001619a NEK1. Conditions: at 1 µM.

Experiment [3] concerns the target Ribosomal protein S6 kinase alpha-6 (Homo sapiens, UniProt Q9UK32). Conditions: at 10 µM.
Experiment [4] concerns the target Ribosomal protein S6 kinase beta-1 (Homo sapiens, UniProt P23443). In words: Selectivity interaction (Enyzmatic assay) EUB0000601a RPS6KB1.
Experiment [5] deals with Phosphatidylinositol 3-kinase catalytic subunit type 3 (Homo sapiens, UniProt Q8NEB9). The experiment in a line: Selectivity interaction (ActivX KiNativ screen (kinase selectivity in THP-1 cell lysates)) EUB0000639a PIK3C3. It counts as subcellular. To be noted: lysate, at 1 µM.
Sequence of Phosphatidylinositol 3-kinase catalytic subunit type 3 (Q8NEB9 whole entry): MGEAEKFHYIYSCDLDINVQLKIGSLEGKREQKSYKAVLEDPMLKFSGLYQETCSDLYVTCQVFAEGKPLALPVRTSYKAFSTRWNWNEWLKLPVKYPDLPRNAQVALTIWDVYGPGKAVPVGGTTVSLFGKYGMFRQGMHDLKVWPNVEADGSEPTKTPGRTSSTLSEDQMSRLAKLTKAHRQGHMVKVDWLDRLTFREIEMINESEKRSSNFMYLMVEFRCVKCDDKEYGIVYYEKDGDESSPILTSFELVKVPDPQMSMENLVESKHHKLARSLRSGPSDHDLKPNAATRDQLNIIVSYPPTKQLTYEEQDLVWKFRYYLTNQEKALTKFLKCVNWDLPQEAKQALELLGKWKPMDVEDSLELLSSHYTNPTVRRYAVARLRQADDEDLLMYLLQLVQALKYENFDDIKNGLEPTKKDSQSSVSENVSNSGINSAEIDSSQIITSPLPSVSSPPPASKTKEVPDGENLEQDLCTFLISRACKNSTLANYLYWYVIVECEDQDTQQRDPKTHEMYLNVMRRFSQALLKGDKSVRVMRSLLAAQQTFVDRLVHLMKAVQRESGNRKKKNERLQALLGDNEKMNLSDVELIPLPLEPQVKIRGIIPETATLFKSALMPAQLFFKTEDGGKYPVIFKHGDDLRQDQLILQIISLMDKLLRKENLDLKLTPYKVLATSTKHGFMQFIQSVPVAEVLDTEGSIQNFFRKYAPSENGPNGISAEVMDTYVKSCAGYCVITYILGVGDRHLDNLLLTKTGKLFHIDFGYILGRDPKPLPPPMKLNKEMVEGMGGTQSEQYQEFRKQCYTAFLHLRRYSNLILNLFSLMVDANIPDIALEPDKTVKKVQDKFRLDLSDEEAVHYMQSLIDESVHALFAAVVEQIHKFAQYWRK
The target of experiment [6] is T2, Tyrosine-protein kinase Tec (Homo sapiens) (UniProt P42680).
T2 sequence (whole entry): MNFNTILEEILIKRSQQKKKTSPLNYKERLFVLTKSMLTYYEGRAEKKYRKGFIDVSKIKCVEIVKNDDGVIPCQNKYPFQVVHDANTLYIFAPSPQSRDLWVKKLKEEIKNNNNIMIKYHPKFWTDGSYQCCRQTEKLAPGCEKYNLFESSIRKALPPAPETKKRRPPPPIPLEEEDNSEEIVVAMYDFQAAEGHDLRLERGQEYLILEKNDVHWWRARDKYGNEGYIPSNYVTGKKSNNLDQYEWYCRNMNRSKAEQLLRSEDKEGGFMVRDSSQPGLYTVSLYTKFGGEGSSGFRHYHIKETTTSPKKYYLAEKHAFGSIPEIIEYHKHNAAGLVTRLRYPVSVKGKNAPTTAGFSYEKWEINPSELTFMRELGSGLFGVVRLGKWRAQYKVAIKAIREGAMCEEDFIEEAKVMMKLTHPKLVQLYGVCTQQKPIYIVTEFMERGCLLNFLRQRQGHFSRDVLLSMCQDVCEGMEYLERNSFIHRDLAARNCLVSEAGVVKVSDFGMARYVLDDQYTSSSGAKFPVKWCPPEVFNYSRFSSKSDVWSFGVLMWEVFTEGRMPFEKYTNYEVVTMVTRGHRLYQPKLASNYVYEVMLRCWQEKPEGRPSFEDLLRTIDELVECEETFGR
The experiment in a line: Selectivity interaction (KinomeScan (DiscoverX)) EUB0001049a TEC. Conditions: at 1 µM.

For experiment [7], the target named is Calcium/calmodulin-dependent protein kinase type 1B (Homo sapiens) (UniProt Q6P2M8). In words: Selectivity interaction (KinomeScan (DiscoverX)) EUB0000229b PNCK. Conditions: at 10 µM.
Sequence of Calcium/calmodulin-dependent protein kinase type 1B (Homo sapiens) (Q6P2M8 whole entry): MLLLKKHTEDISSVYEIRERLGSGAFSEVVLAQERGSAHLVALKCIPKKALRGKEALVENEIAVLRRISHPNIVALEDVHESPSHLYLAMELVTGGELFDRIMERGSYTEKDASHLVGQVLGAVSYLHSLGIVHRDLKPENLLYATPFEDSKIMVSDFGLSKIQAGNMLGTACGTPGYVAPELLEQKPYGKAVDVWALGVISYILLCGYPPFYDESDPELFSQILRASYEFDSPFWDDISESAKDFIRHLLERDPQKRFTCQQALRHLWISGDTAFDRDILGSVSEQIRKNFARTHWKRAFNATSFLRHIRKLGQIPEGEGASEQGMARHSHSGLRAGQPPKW
The target in experiment [8] is T3, Phosphatidylinositol 5-phosphate 4-kinase type-2 gamma (Homo sapiens) (UniProt Q8TBX8).
T3 sequence (whole entry): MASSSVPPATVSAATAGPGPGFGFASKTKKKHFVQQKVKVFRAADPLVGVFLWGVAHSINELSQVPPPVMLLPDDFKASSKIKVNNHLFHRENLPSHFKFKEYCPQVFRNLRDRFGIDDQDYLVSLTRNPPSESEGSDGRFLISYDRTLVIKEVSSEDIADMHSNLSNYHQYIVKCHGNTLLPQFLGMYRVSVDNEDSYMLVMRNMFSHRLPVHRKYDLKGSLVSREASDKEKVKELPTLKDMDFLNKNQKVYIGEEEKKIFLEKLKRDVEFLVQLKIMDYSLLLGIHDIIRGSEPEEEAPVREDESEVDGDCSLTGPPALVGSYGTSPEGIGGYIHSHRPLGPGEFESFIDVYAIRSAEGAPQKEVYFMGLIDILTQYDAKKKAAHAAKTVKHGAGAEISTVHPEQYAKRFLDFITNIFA
The experiment in a line: Selectivity interaction (Kinase panel (KiNativ target engagement assay in Jurkat cells)) EUB0001635a PIP4K2C. In kind it is cell-based. Conditions: Selectivity number of off-targets 0.0, Selectivity number of targets 233.0, Source Knowledge https://www.sciencedirect.com/science/article/pii/S2451945619300674?via%3Dihub, at 1 µM.

Sequence of Ribosomal protein S6 kinase beta-1 (P23443 whole entry): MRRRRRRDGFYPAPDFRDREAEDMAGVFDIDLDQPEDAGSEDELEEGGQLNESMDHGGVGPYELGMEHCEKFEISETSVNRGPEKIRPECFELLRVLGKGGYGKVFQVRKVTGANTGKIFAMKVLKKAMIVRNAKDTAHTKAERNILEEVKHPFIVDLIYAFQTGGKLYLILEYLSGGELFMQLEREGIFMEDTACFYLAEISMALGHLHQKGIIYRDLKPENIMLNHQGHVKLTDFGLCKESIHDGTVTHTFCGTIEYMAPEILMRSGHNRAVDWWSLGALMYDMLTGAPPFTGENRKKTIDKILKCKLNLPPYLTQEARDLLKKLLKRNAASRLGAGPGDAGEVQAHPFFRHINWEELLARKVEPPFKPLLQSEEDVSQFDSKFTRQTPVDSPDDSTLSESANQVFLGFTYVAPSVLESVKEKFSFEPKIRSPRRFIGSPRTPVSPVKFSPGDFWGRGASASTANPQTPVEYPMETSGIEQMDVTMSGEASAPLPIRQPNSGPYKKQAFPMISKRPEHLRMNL
Sequence of Ribosomal protein S6 kinase alpha-6 (Q9UK32 whole entry): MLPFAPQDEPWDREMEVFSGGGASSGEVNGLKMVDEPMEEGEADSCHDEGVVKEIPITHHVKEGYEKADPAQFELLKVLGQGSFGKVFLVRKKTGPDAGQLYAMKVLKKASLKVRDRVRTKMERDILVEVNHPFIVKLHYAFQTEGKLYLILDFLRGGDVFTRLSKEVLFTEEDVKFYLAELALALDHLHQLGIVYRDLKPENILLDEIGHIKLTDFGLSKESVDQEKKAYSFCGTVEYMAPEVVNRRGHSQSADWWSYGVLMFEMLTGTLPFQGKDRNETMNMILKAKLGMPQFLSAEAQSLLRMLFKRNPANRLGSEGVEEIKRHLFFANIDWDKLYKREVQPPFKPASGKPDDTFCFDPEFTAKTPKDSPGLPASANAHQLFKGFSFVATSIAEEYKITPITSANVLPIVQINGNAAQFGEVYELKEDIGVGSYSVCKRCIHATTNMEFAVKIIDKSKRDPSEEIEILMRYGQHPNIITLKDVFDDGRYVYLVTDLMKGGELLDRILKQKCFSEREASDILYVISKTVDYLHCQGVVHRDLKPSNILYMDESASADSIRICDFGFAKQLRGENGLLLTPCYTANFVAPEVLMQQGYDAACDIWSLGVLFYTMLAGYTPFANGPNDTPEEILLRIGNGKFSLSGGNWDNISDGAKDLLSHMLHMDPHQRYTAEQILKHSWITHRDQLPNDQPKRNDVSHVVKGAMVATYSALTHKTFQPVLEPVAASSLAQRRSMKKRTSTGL
Sequence of Myosin light chain kinase, smooth muscle (Q15746 whole entry): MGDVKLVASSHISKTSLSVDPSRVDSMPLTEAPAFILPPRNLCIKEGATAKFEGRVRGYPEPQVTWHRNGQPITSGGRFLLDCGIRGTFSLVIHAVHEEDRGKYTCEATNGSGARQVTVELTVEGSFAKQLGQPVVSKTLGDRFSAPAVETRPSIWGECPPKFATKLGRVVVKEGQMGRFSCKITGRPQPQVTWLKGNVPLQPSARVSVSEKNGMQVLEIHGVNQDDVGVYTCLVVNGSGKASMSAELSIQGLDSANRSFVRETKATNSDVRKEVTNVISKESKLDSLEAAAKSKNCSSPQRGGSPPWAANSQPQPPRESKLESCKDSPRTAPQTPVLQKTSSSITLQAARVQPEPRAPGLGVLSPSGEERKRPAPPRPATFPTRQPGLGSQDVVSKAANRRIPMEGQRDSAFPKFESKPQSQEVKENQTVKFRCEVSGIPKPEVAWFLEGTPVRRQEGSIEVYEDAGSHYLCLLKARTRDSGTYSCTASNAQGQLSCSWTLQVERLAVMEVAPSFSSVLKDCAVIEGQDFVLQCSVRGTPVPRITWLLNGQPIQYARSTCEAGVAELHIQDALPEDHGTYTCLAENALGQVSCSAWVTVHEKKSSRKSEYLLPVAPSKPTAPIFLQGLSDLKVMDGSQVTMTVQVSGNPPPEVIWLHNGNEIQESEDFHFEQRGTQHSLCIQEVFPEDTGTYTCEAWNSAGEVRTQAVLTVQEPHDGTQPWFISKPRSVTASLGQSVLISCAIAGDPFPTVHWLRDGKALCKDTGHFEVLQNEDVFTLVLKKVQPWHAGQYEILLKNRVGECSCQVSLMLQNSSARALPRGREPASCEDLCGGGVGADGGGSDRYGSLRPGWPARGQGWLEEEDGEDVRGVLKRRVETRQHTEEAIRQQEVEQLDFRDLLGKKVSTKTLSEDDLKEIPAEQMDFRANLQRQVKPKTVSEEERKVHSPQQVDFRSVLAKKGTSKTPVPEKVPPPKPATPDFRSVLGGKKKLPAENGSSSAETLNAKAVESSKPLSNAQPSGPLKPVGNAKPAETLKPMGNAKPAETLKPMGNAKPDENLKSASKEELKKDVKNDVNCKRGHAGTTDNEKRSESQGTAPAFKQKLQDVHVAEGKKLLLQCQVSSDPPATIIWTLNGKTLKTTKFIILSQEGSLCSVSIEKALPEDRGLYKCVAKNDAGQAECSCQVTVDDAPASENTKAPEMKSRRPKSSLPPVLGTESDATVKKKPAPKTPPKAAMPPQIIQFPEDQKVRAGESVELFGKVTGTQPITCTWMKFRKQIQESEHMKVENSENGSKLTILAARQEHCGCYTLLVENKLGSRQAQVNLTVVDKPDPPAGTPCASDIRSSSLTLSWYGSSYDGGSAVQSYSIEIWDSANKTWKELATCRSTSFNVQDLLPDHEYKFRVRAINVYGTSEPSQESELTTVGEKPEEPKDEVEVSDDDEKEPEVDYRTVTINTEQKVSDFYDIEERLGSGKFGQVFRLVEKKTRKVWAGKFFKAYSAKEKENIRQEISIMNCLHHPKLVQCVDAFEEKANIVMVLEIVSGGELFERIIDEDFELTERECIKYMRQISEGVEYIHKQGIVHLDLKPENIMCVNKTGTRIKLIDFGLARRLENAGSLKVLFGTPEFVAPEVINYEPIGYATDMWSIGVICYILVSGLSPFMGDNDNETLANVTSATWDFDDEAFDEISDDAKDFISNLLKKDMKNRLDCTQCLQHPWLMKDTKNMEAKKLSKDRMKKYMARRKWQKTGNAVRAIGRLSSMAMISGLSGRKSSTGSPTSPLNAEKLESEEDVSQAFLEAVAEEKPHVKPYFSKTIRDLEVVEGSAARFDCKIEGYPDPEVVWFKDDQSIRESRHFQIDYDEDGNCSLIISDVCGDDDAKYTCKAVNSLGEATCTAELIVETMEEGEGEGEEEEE

As for `Cn1cc(-n2cnc3c(NCc4nc5cc(Cl)c(Cl)cc5[nH]4)nc(N4CCOCC4)nc32)cn1`, in experiment [1], the % of inhibition is -17.4%. Turning to `N#Cc1cccc(-c2c[nH]c3ncnc(N4CCOCC4)c23)c1`, the % of control in experiment [2] is 100%. Regarding `CCN(CC)CCCCNc1ncc2cc(-c3cc(OC)cc(OC)c3)c(NC(=O)NC(C)(C)C)nc2n1`, the % of control in experiment [3] stood at 100%.

`CCc1cc(Nc2nccc(-c3c(-c4ccc(OC)c(C(=O)Nc5c(F)cccc5F)c4)nc4ccccn34)n2)c(OC)cc1N1CCC(N2CCN(S(C)(=O)=O)CC2)CC1`: in experiment [4], the IC50 was more than 10 µM.

As to `CC[C@@H]1[C@H](F)C(=O)N[C@@H]1COc1nccc2cc(C(N)=O)c(OC)cc12` [ZIMLOVISERTIB], the % of inhibition in experiment [5] was -13.7%.

Consider `COc1cc(Nc2nc(C)cc(-c3cnn4nc(OC)ccc34)n2)cc(C(F)(F)F)c1`, for which the % of control in experiment [6] was determined as 78%. Regarding `COc1cc(N(C)c2ccnc3ccc(C(F)(F)F)cc23)cc(OC)c1OC`, in experiment [7], the % binding was found to be 98%. On to `C=CC(=O)Nc1ccc(C(=O)Nc2[nH]nc3c2CN(C(=O)N[C@H](CN(C)C)c2ccccc2)C3(C)C)cc1`, for which the % of engagement in experiment [8] is -2.5%.
